In patent publication US9427433B2, “Methods and compositions for enhancing fertility and/or inhibiting pregnancy failure and restoring glucose tolerance” (Queen's University at Kingston, priority 2011, dated 2016):

Assays:
[1] = tested on: high fat fed female NZO mice; assay: Ovarian histology of macrolide-treated chronically high fat fed NZO mice; type: in vivo, mouse; details: chronically high fat diet fed NZO mice
Protocol: Statistical differences between groups were measured by two-way analysis of variance (ANOVA) followed by Bonferroni post-hock t-test comparing effect of all tested macrolides on mean follicular structure counts/unit area at 95% confidence. Scale bars=200 μm for B, D, F, G, H, I, J and 50 μm for A, C, E. N=10 (HFD-NZO), 6 per treatment group. A, C and E are higher magnifications of B, D and F respectively. * denoting ovarian cyst(s).
(§1) For the comparative evaluation of other macrolide drugs to tacrolimus, mice starting at 7 weeks of age were maintained on the high fat diet for a total of 13 weeks of study period. Mice were entered into the experiments when determined to be glucose intolerant as described above. Methods of drug administration and other experimental methods were as described above.

[2] = tested on: type 2 diabetes NZO mouse model; assay: HOMA-IR, HOMA-B and insulin sensitivity index (Si); type: in vivo
Protocol: (§2) Female mice were administered tacrolimus (0.1 mg/kg or 0.05 mg/kg, n=6/group), vehicle (n=10), pimecrolimus (0.1 mg/kg, n=6) or sirolimus (0.1 mg/kg, n=6) subcutaneously every other day for 3 weeks.
HOMA IR=fasting glucose (mmol/L)×fasting insulin ([…])/22.5 according to the method of Bonora E et al., 2000. Pancreatic β-Cell function (HOMA-B) was calculated according to the method of Tresaco B et al., 2005, HOMA-B=[20×[…]). Insulin sensitivity (Si) was determined according to the method of Matthews D et al., 1985. Si=[basal glucose]−[glucose 15 min]/15).

[3] = tested on: NZO mice fed a high fat diet; assay: Implantation rate and resorption, comparison of macrolides; type: in vivo, mouse; details: vs vehicle
Protocol: as §1
Peri-implantation (E4.5) and post-implantation (E6.5) pregnant and/or pseudopregnant (E4.5bid and E6.5bid) mouse uteri were prepared after mating respectively with fertile and/or vasectomized males as previously described (Herington et al. Endocrinol 2009 150: 4404-4413). The morning of vaginal plug detection was considered as gestational day 0.5 (E0.5 or Gd.0.5). An average number of twenty Concanavalin A(ConA)-coated sepharose beads (average size of 0.1 mm-diameter) (Sigma-Aldrich, Burlington, Ontario, Canada) was injected into the lumen of the left uterine horn of anesthetized animals between hours 13:00 and 16:00 on day 2.5 of pseudopregnancy according to the procedure described by Herington et al. (Endocrinol, 2009 150: 4404-4413). With the use of Ketamine/Xyalzine anesthesia and cardiac puncture, all animals were sacrificed at the age of 16-18 weeks between the morning hours 09:00-11:00. Pregnant and pseudopregnant mice were sacrificed in the morning of days 4.5 and 6.5 of their respective pregnancy. Blood samples were collected from all animals and were let stand for 1 hour at room temperature before isolation of the serum. Serum samples were stored at −80° C. until they were analyzed for their steroid hormones and lipid contents by appropriate laboratory procedures such as radio-immunoassay (RIA) all of which were conducted at the Department of Clinical Chemistry (Kingston General Hospital, Kingston, Ontario, Canada). Ovaries, oviducts and uteri were carefully dissected out of carcasses and were placed in ice-cold phosphate buffered saline (PBS)-containing petri dishes. Under a dissecting microscope, uteri were carefully isolated from their attached uterine tubes, trimmed of all mesenteric fat and were immediately weighed. The numbers of corpora lutea and implantation sites (viable and resorbed) were counted, respectively, from E4.5 and E6.5 pregnant mouse ovaries and uteri. For protein and RNA extraction, virgin uteri and segments of uterine horns containing inter-implantation sites of pregnant and pseudopregnant uteri were transected and snapped frozen in liquid nitrogen.
Examination of external morphological features of uteri of pregnant mice, including counts of implantation sites and photography was performed using a computerized dissecting microscope (Leica Diagnostic Instruments, USA) and the image acquisition and analytic software (SPOT 2.2.0). Percentage of peri-implantation embryo loss was calculated as described by Bindali and Kaliwal (Ind. Health, 2002 40:191-197), using the formula: % Preimplantation loss=[Total number of corpora lutea−Total number of implantation]/Total number of corpora lutea. Immunohistochemical localization and assessment of microscopic morphological features of implantation and inter-implantation sites in normoglycemic and diabetic NOD mice were performed on methacarn (60% methanol, 30% chloroform and 10% acetic acid)-fixed specimens. […]

[4] = tested on: female NZO mice fed a continuous high fat diet; assay: Weight loss, comparison of macrolides; type: in vivo, mouse; details: tacrolimus 0.05 or 0.1 mg/kg, pimecrolimus 0.1 mg/kg, sirolimus 0.1 mg/kg s.c. every other day for three weeks; vs vehicle
Text: as §1

[5] = tested on: NZO mice fed a high fat diet; assay: Fasting serum glucose, fasting serum insulin and glucose tolerance, comparison of macrolides; type: in vivo, mouse
Protocol: as §2, §1
Glucose Tolerance Test (GTT): was performed according to standard protocol (Ayala et al 2010). Briefly, basal glucose levels were measured for conscious mice individually caged in 1000 cc plastic mouse caging using a one-touch ultra glucose strips and meter (Acqui-check Aviva, Roche, Montreal, Canada) and approximately 30 microliters of blood obtained via tail venipuncture prior to fasting for six hours in cages equipped with hardwood bedding. Fasting blood glucose was recorded at the end of the six hours fasting period. Mice were then tested for oral glucose tolerance (OGTT) or for insulin sensitivity (Si). For OGTT alert mice were then given 20% D-glucose (2 g/kg body weight) sterile syrup administered orally. For Si experiments mice were given 20% D-glucose (2 g/kg body weight) sterile syrup by intraperitoneal administration through a 1 ml D29 gage “½” insulin syringe (Fisher Scientific, Montreal, Canada). Then after, blood glucose was recorded at 15, 30, 45, 60, 90 and 120 minutes respectively. For Si experiments blood glucose was determined only at 15 minutes. Glucose tolerance graphs were generated by blotting mean±standard error of the mean (SEM) of the recorded glucose data per mouse per minute collection time. One way analysis of variance (ANOVA) followed by student t-test was performed to determine alpha values for statistical differences among mean blood glucose values across experimental mice groups.
Fasting immuno-reactive mouse insulin levels were quantitatively determined in citrated platelet-free plasma samples obtained from 6 hours-fasting mice using an Ultrasensitive mouse Insulin Eliza kit (#90080, Crystal chem., IL, USA) according to the manufacturer instructions. Briefly, platelet-free plasma were isolated from freshly obtained citrated whole blood samples of fasting mice and the provided insulin standards were incubated overnight on a shaking platform at 4 C^0 in a 96 wells plate coated with Guinea pig anti-insulin. Afterwards, unbound sample materials were thoroughly washed with the supplied wash buffers and the bound guinea pig anti-insulin/mouse insulin complex immobilized to the microplate wells were incubated with Horseradish peroxidase (HRP)-conjugated anti-insulin antibody for 40 minutes at room temperature with continuous agitation. Excess unbound HRP-conjugated anti-insulin antibodies were then washed excessively with wash buffers and the HRP-mediated color reaction was developed with the addition of 3,3′,5,5′ tetramethylbenzidine (TMB) substrate solution. The amount of insulin (ng/ml) present in the test samples were then measured via interpolation using the standard curve generated by plotting absorbance (at A^0450-A^0635) versus the corresponding concentration of a wide range (0.1-12.8 ng/ml) of mouse insulin standards according to the provider's instructions. Graphic representation of differences in mean±sem of plasma insulin among different groups of mice were blotted using Prism5 (La Jolla, Calif., USA) software and statistically significant differences (at 95% confidence) were calculated for the different test groups of mice using one way ANOVA followed by Bonferroni modified student t-test comparing differences between individual experimental groups.

[6] = 0.1 mg/kg s.c. every other day for 3 weeks, vs vehicle

CC[C@@H]1/C=C(\C)C[C@H](C)C[C@H](OC)[C@H]2O[C@@](O)(C(=O)C(=O)N3CCCC[C@H]3C(=O)O[C@H](/C(C)=C/[C@@H]3CC[C@H](Cl)[C@H](OC)C3)[C@H](C)[C@@H](O)CC1=O)[C@H](C)C[C@@H]2OC [pimecrolimus]
follicular growth pattern in the ovaries [1]: restored follicular growth pattern | ovarian cyst formation ([1]; p<0.001): inhibited the development of ovarian cysts | ovarian follicular atresia ([1]; vs untreated HFD-NZO): significantly inhibited ovarian follicular atresia (p<0.01) | insulin resistance (HOMA-IR) ([2]; p<0.001 vs vehicle): significantly reduced insulin resistance | insulin sensitivity (Si) ([2]; p<0.01 vs vehicle): enhanced insulin sensitivity | pancreatic β-cell function (HOMA-B) ([2]; p<0.05 vs vehicle): enhanced pancreatic β-cell function | embryonic and fetal absorption rate ([3]; same treatments, p<0.05): significantly reduced embryonic and fetal absorption rate | implantation rate ([3]; tacrolimus 0.05 and 0.1 mg/kg, pimecrolimus 0.1 mg/kg, sirolimus 0.1 mg/kg s.c. every other day for three weeks): significantly improved implantation rate (p<0.05) | weight loss [4]: induced statistically significant weight loss | fasting basal serum glucose [5, 6]: maintained low fasting basal serum glucose and insulin levels | fasting basal serum insulin [5, 6]: maintained low fasting basal serum glucose and insulin levels | glucose intolerance ([5]; 0.1 mg/kg, FIG. 17C, p=0.0001): significantly reduced glucose intolerance although to a lesser degree than tacrolimus | insulin secretion in response to a hyperglycemic challenge ([5]; tacrolimus 0.1 or 0.05 mg/kg, pimecrolimus 0.1 mg/kg, sirolimus 0.1 mg/kg s.c. every other day for 3 weeks, vs vehicle): significantly improved insulin secretion
